According to the supplement of paper PMC13380429:
± gives the standard deviation of the averaged measurements.

Legend:
Details in all cases: 72 h
Caco-2 [1] = experiment: relative viability EC50 (midpoint between 100% and the lowest measured viability); higher = less toxic
Vero E6 [2] = experiment: as above
U2OS [3] = experiment: as above
HepG2 [4] = experiment: as above
Calu-3 [5] = experiment: as above
Caco-2 [6] = experiment: drug sensitivity score (DSS) for viability; higher = more toxic; extreme values may be limits of the assay
Vero E6 [7] = experiment: as above
U2OS [8] = experiment: as above
HepG2 [9] = experiment: as above
Calu-3 [10] = experiment: as above
Caco-2 [11] = experiment: cell viability relative to DMSO; higher = less toxic
Vero E6 [12] = experiment: as above
U2OS [13] = experiment: as above
HepG2 [14] = experiment: as above
Calu-3 [15] = experiment: as above

Row | SMILES | relative viability EC50 (Caco-2 [1]) | relative viability EC50 (Vero E6 [2]) | relative viability EC50 (U2OS [3]) | relative viability EC50 (HepG2 [4]) | relative viability EC50 (Calu-3 [5]) | drug sensitivity score (Caco-2 [6]) | drug sensitivity score (Vero E6 [7]) | drug sensitivity score (U2OS [8]) | drug sensitivity score (HepG2 [9]) | drug sensitivity score (Calu-3 [10]) | cell viability (Caco-2 [11]; 1 nM) | cell viability (Caco-2 [11]; 10 nM) | cell viability (Caco-2 [11]; 100 nM) | cell viability (Caco-2 [11]; 1000 nM) | cell viability (Caco-2 [11]; 10000 nM) | cell viability (Vero E6 [12]; 1 nM) | cell viability (Vero E6 [12]; 10 nM) | cell viability (Vero E6 [12]; 100 nM) | cell viability (Vero E6 [12]; 1000 nM) | cell viability (Vero E6 [12]; 10000 nM) | cell viability (U2OS [13]; 1 nM) | cell viability (U2OS [13]; 10 nM) | cell viability (U2OS [13]; 100 nM) | cell viability (U2OS [13]; 1000 nM) | cell viability (U2OS [13]; 10000 nM) | cell viability (HepG2 [14]; 1 nM) | cell viability (HepG2 [14]; 10 nM) | cell viability (HepG2 [14]; 100 nM) | cell viability (HepG2 [14]; 1000 nM) | cell viability (HepG2 [14]; 10000 nM) | cell viability (Calu-3 [15]; 1 nM) | cell viability (Calu-3 [15]; 10 nM) | cell viability (Calu-3 [15]; 100 nM) | cell viability (Calu-3 [15]; 1000 nM) | cell viability (Calu-3 [15]; 10000 nM)
1 | O=C(OCCN1CCCCC1)c1c[nH]c2ccccc12 | > 10 µM | > 10 µM | > 10 µM | > 10 µM | > 10 µM | 0 | 0 | 0 | 0 | 0 | 99.3% | 97.2% | 95.3% | 96.3% | 99.4% | 98.7% | 95.6% | 95.4% | 95.8% | 104% | 96.8% | 104% | 97.6% | 102% | 94.3% | 102% | 93.8% | 98.2% | 106% | 94.4% | 106% | 104% | 97.7% | 103% | 91.3%
2 | O=C(O)[C@H]1CCCN(CCC=C(c2ccccc2)c2ccccc2)C1 (racemic) | > 10 µM | > 10 µM | > 10 µM | > 10 µM | > 10 µM | 0 | 0 | 0 | 0 | 0 | 95.9% | 98.7% | 102% | 95.7% | 94.9% | 99.6% | 100% | 101% | 102% | 103% | 98.6% | 98.2% | 98.1% | 102% | 91.3% | 107% | 94.5% | 83.9% | 108% | 99.2% | 96.8% | 98.5% | 111% | 90.9% | 111%
3 | CC(C)NC[C@@H](O)COc1ccc(CC(N)=O)cc1 (racemic) [atenolol-(+/-)] | > 10 µM | > 10 µM | > 10 µM | > 10 µM | > 10 µM | 0.25 ± 0.35 | 0.1 ± 0.14 | 0 | 0.05 ± 0.071 | 0 | 99.8 ± 9.3% | 99 ± 11% | 105 ± 7% | 88.3 ± 0.99% | 92.1 ± 0.85% | 103 ± 4.4% | 85.3 ± 10% | 105 ± 4.5% | 92.4 ± 13% | 97 ± 5.9% | 98.2 ± 3.5% | 96 ± 3% | 100.1 ± 0.28% | 97 ± 0.71% | 99.1 ± 3.7% | 101 ± 10% | 92 ± 14% | 98.9 ± 9.5% | 96.2 ± 8.2% | 99.2 ± 18% | 94.2 ± 4.5% | 101 ± 11% | 96.5 ± 3.4% | 97.8 ± 2.3% | 102 ± 2.6%
4 | C#C[C@]1(O)CC[C@H]2[C@@H]3CCc4cc(O)ccc4[C@H]3CC[C@@]21C [ETHINYL ESTRADIOL] | > 10 µM | > 10 µM | > 10 µM |  | > 10 µM | 0.2 | 0 | 0 | 3 | 0 | 97.2% | 102% | 99.5% | 99.4% | 85.7% | 97.7% | 98.1% | 94.2% | 92.9% | 102% | 97.7% | 105% | 98.8% | 102% | 92.9% | 97.3% | 98% | 99.8% | 90.8% | 65.7% | 100% | 100% | 88.4% | 94.3% | 96.4%
5 | O/N=C/c1ccc(-c2ccc(O)c(F)c2)c(Cl)c1O [FERb-033] | > 10 µM | > 10 µM | > 10 µM |  | > 10 µM | 0.8 | 0 | 0 | 1.2 | 0.3 | 98.1% | 95.2% | 93.4% | 91.9% | 81.4% | 97.7% | 106% | 98.8% | 103% | 95.7% | 102% | 97.1% | 99.5% | 96.9% | 93.9% | 95.7% | 104% | 100% | 99.8% | 71.1% | 104% | 101% | 100% | 98.9% | 84.8%
6 | O=S(=O)(c1cccc2c(Cl)cccc12)N1CCCNCC1 [ML9] | > 10 µM | > 10 µM | > 10 µM |  | > 10 µM | 0.1 | 0 | 0 | 1.5 | 0 | 94.5% | 91.6% | 97.3% | 88% | 87.7% | 89% | 96.9% | 87.9% | 96.8% | 94.1% | 95.5% | 93.3% | 96.9% | 102% | 103% | 96.3% | 96.5% | 90.8% | 93.3% | 74.7% | 110% | 104% | 110% | 99.9% | 98.9%
7 | O=C(O)c1ccc(Nc2ncc3c(n2)-c2ccc(Cl)cc2C(c2c(F)cccc2F)=NC3)cc1 [MLN8054] | > 10 µM | > 10 µM | > 10 µM |  | > 10 µM | 3.3 | 1.1 | 2 | 5.1 | 0.6 | 94.4% | 100% | 87% | 82% | 82.5% | 103% | 97.9% | 104% | 91.7% | 82.7% | 103% | 105% | 100% | 90% | 76.7% | 109% | 108% | 96.7% | 73.2% | 62.3% | 96.2% | 96.2% | 112% | 91.3% | 86.8%
8 | CCOC(=O)c1c(O)nc2cccc3c2c1-c1ccccc1C3=O [NQDI-1] | > 10 µM | > 10 µM | > 10 µM |  | > 10 µM | 0 | 0 | 0 | 5 | 0 | 89.6% | 103% | 89.7% | 92.9% | 98.3% | 104% | 103% | 102% | 95.9% | 94% | 95.6% | 101% | 102% | 97.7% | 101% | 106% | 102% | 98.4% | 76% | 57.2% | 91.5% | 96.8% | 95.7% | 95.2% | 104%
9 | O=C(O)[C@H]1O[C@@H](Oc2cc3oc(-c4ccccc4)cc(=O)c3c(O)c2O)[C@H](O)[C@@H](O)[C@@H]1O [baicalin] | > 10 µM | > 10 µM | > 10 µM |  | > 10 µM | 0 | 0 | 0 |  | 0 | 109% | 99% | 95.7% | 93.3% | 97.5% | 99.7% | 103% | 102% | 103% | 102% | 105% | 93.2% | 104% | 101% | 91.8% |  |  |  |  |  | 103% | 98.5% | 90.4% | 104% | 109%
10 | N=C(N)c1ccc(/N=N/Nc2ccc(C(=N)N)cc2)cc1 [diminazene-aceturate] | > 10 µM | > 10 µM | > 10 µM |  | > 10 µM | 1.9 | 0 | 0 | 4.2 | 0 | 104% | 102% | 112% | 91.1% | 76.6% | 99.7% | 109% | 107% | 102% | 91.3% | 99% | 98.3% | 103% | 98.2% | 107% | 112% | 113% | 90.2% | 86.5% | 50.5% | 93.7% | 101% | 99.9% | 99.2% | 94.8%
11 | O=C(O)[C@H](O)[C@@H](O)[C@H](O[C@@H]1O[C@H](CO)[C@H](O)[C@H](O)[C@H]1O)[C@H](O)CO [maltobionic-acid] | > 10 µM | > 10 µM | > 10 µM |  | > 10 µM | 0 | 0 | 0 |  | 0 | 89.3% | 101% | 85.6% | 97.9% | 115% | 94.3% | 89.8% | 94.4% | 88% | 101% | 93.6% | 103% | 97.8% | 102% | 101% |  |  |  |  |  | 103% | 106% | 101% | 100% | 99.7%
12 | Cc1ncc(CO)c(/C=N/NC(=O)c2ccncc2)c1O [pyridoxal-isonicotinoyl-hydrazone] | > 10 µM | > 10 µM | > 10 µM |  | > 10 µM | 0 | 0 | 0 |  | 0 | 102% | 108% | 93.3% | 100% | 100% | 100% | 94.2% | 92.5% | 97.4% | 109% | 95.8% | 97.4% | 95.8% | 93% | 102% |  |  |  |  |  | 90.1% | 99.4% | 102% | 103% | 92%
13 | CCCCCCCCCCCCCCC[C@@H](O)[C@@H](N)CO [safingol] | 2.87 µM | > 10 µM | > 10 µM |  | > 10 µM | 6 | 0 | 0 | 1.9 | 0 | 94.1% | 85.3% | 91% | 96.1% | 1.7% | 106% | 106% | 96.1% | 104% | 106% | 94% | 97.9% | 102% | 97.9% | 103% | 106% | 103% | 80% | 95.5% | 73.7% | 85.3% | 96.8% | 95.2% | 108% | 96.4%
14 | CC[C@H](NC(=O)c1c(O)c(-c2ccccc2)nc2ccccc12)c1ccccc1 [talnetant] | > 10 µM | > 10 µM | > 10 µM |  | > 10 µM | 0 | 0 | 0 | 1 | 0 | 97.9% | 98.9% | 101% | 98.1% | 90% | 109% | 102% | 98.4% | 102% | 102% | 100% | 92.7% | 104% | 95% | 101% | 102% | 99% | 94.6% | 100% | 74.2% | 104% | 97.3% | 104% | 96.5% | 106%
15 | O=c1n(CC2CO2)c(=O)n(CC2CO2)c(=O)n1CC1CO1 (stereo not given) [teroxirone] | > 10 µM | > 10 µM | > 10 µM |  | > 10 µM | 0.4 | 0.4 | 0 | 4 | 0 | 102% | 101% | 95.6% | 93.2% | 84.3% | 100% | 105% | 98.5% | 102% | 80.8% | 103% | 95.7% | 104% | 102% | 96.2% | 99.9% | 100% | 92.8% | 91.1% | 51.8% | 94.4% | 91.2% | 99.3% | 84.1% | 90.9%
